The results in this text go back to ChEMBL document CHEMBL1201862, “PubChem BioAssay data set” (2004).

Among the test systems are CAKI-1; CCRF-CEM; HCC 2998; HOP-92; HT-29; Hs-578T; IGROV-1; MCF7; MDA-MB-435; Malme-3M; OVCAR-4; OVCAR-5; OVCAR-8; PC-3; RPMI-8226; SF-295; SF-539; SK-MEL-2; TK-10; UACC-62.
Holding throughout (assay): growth of human tumour cells (NCI), 48 h

Structures are written as SMILES.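 Cells were grown in 96-well plates and exposed to each compound for 48 hours at five concentrations; endpoints were interpolated linearly between bracketing concentrations, or set to the highest concentration if not reached. The concentration for 50% growth inhibition is given as GI50.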 Calls of active or inactive are those of the source. Rule as the data show it: active = GI50 up to about 1.1 µM and inactive = higher.

With `Nc1nc(OCC2CCCCC2)c2nc[nH]c2n1`, the GI50 in the assay on CAKI-1 is 7.24 µM (inactive); with CCRF-CEM, 11.2 µM (inactive); in the assay with HCC 2998, 17.5 µM (inactive); in the assay with HOP-92, 10.3 µM (inactive); in the assay on HT-29, 12.3 µM (inactive); in the assay with Hs-578T, 8.39 µM (inactive). For the same compound, the GI50 with IGROV-1 was 5 µM (inactive); in the assay on MCF7, 0.957 µM (active); with MDA-MB-435, 13.7 µM (inactive); with Malme-3M it was 5.73 µM (inactive); in the assay on OVCAR-4 it was 13.2 µM (inactive); in the assay on OVCAR-5, 13.6 µM (inactive). For the same compound, the GI50 with OVCAR-8 is 16.5 µM (inactive); with PC-3, 10.8 µM (inactive); with RPMI-8226, 11.1 µM (inactive); with SF-295, 17.7 µM (inactive); in the assay with SF-539, 11.5 µM (inactive); in the assay on SK-MEL-2 it was 4.5 µM (inactive). The GI50 in the assay with TK-10 was 7.35 µM (inactive); in the assay with UACC-62 it was 12.6 µM (inactive).

In the case of `CNC(=O)N(C)/N=N/CCCl`, the GI50 in the assay on CAKI-1, in the assay on CCRF-CEM, in the assay on HCC 2998, with HOP-92, with HT-29 and in the assay with Hs-578T was > 100 µM (inactive) throughout. Further, the GI50 in the assay with IGROV-1, in the assay on MCF7, in the assay on MDA-MB-435, in the assay on Malme-3M, with OVCAR-4 and in the assay with OVCAR-5 was > 100 µM (inactive) throughout. The GI50 with OVCAR-8, in the assay with PC-3, with RPMI-8226, in the assay with SF-295, with SF-539 and in the assay with SK-MEL-2 was > 100 µM (inactive) in each case. Further, the GI50 in the assay on TK-10 and in the assay on UACC-62 was > 100 µM (inactive) each time.

For `C/C1=C\[C@H](C)C[C@H](C)OC(=O)C[C@H](c2ccc(O)cc2)NC(=O)[C@@H](Cc2c(Br)[nH]c3ccccc23)N(C)C(=O)[C@H](C)NC(=O)[C@@H](C)C1` [JASPAMIDE], the GI50 was 0.092 µM (active) in the assay on CAKI-1; 0.0209 µM (active) in the assay on CCRF-CEM; 0.0499 µM (active) in the assay with HCC 2998; 0.237 µM (active) with HOP-92; 0.173 µM (active) with HT-29; 0.0611 µM (active) in the assay on Hs-578T. Moreover, the GI50 with IGROV-1 is 0.114 µM (active); with MCF7, 0.0895 µM (active); in the assay with MDA-MB-435 it was 0.063 µM (active); with Malme-3M, 0.148 µM (active); in the assay with OVCAR-4, 0.173 µM (active); in the assay on OVCAR-5, 0.457 µM (active). Also, the GI50 was 0.381 µM (active) in the assay on OVCAR-8; 0.0667 µM (active) in the assay with PC-3; 0.218 µM (active) with RPMI-8226; 0.259 µM (active) in the assay on SF-295; 0.0249 µM (active) in the assay with SF-539; 0.294 µM (active) in the assay with TK-10. Also, the GI50 in the assay with UACC-62 was 0.219 µM (active).

Consider `COc1ccc(C(=O)C#Cc2cn(C3CC(O)C(CO)O3)c(=O)[nH]c2=O)cc1` (stereo not drawn), for which the GI50 in the assay with CAKI-1 is > 100 µM (inactive); in the assay with CCRF-CEM, > 10 µM (inactive); in the assay on HCC 2998, > 100 µM (inactive); in the assay on HOP-92, 21.7 µM (inactive); in the assay on HT-29 it was > 100 µM (inactive); in the assay with Hs-578T, 30.6 µM (inactive). Moreover, the GI50 in the assay with IGROV-1 was > 100 µM (inactive); with MCF7, 35.5 µM (inactive); in the assay with MDA-MB-435, 56.8 µM (inactive); in the assay on Malme-3M it was 10.4 µM (inactive); in the assay with OVCAR-4, 48.6 µM (inactive); in the assay with OVCAR-8, > 100 µM (inactive). In addition, the GI50 in the assay with PC-3 was > 100 µM (inactive); with RPMI-8226, > 100 µM (inactive); with SF-295 it was > 100 µM (inactive); with SF-539, 19.3 µM (inactive); with SK-MEL-2, 56.4 µM (inactive); in the assay on TK-10, 78.3 µM (inactive). Moreover, in the assay on UACC-62, the GI50 was 55.5 µM (inactive).

Turning to `CCCCOP(=O)(OCCCC)/C(C#N)=C/c1ccc(C)o1`, the GI50 in the assay on CAKI-1 is 60.5 µM (inactive); in the assay on HCC 2998, > 100 µM (inactive); in the assay on HOP-92 it was 29.6 µM (inactive); in the assay with HT-29, 45.6 µM (inactive); with Hs-578T, 57.4 µM (inactive); in the assay on IGROV-1, > 100 µM (inactive). In addition, the GI50 in the assay with MCF7 is 22.6 µM (inactive); in the assay on MDA-MB-435, 32.6 µM (inactive); in the assay on Malme-3M, 29.6 µM (inactive); with OVCAR-4, 46.8 µM (inactive); in the assay with OVCAR-5, 86.3 µM (inactive); in the assay on OVCAR-8, 53.6 µM (inactive). Moreover, the GI50 is 23.9 µM (inactive) in the assay on PC-3; 54.8 µM (inactive) in the assay on RPMI-8226; 43.7 µM (inactive) in the assay with SF-295; 61.1 µM (inactive) with SF-539; 31 µM (inactive) in the assay with SK-MEL-2; > 100 µM (inactive) in the assay with TK-10. The GI50 in the assay on UACC-62 is 53.7 µM (inactive).

In the case of `COc1ccc(Cc2c(N)[nH]c(=O)n(C)c2=O)cc1`, the GI50 with CAKI-1 is 96.6 µM (inactive); in the assay with HCC 2998, > 100 µM (inactive); in the assay with HOP-92, 3.9 µM (inactive); in the assay on HT-29, 47.5 µM (inactive); with Hs-578T, 45.1 µM (inactive); in the assay with IGROV-1 it was > 100 µM (inactive). For the same compound, the GI50 with MCF7 is 5.75 µM (inactive); in the assay on MDA-MB-435, > 100 µM (inactive); in the assay with Malme-3M it was > 100 µM (inactive); in the assay with OVCAR-4, 89.7 µM (inactive); in the assay with OVCAR-5 it was > 100 µM (inactive); with OVCAR-8, > 100 µM (inactive). Further, the GI50 in the assay on PC-3 is 97.3 µM (inactive); in the assay with RPMI-8226, > 100 µM (inactive); in the assay with SF-295 it was > 100 µM (inactive); with SF-539, > 100 µM (inactive); in the assay with SK-MEL-2, > 100 µM (inactive); with TK-10, > 100 µM (inactive). In addition, the GI50 with UACC-62 was > 100 µM (inactive).

With `CC(=O)c1c2c(cc3c1CC1(Cc4ccccc4C1=O)C3)CCC2` (stereo not drawn), the GI50 in the assay with CAKI-1 was 8.55 µM (inactive); in the assay with CCRF-CEM, 16.8 µM (inactive); in the assay on HCC 2998 it was 27.5 µM (inactive); with HOP-92, 12.2 µM (inactive); in the assay with HT-29, 20.5 µM (inactive); in the assay on Hs-578T, 28.8 µM (inactive). Besides, the GI50 was 16.3 µM (inactive) in the assay on IGROV-1; 17.1 µM (inactive) in the assay on MCF7; 22.3 µM (inactive) in the assay with MDA-MB-435; 16.8 µM (inactive) with Malme-3M; 75.2 µM (inactive) with OVCAR-4; 51.2 µM (inactive) with OVCAR-5. For the same compound, the GI50 was 18 µM (inactive) in the assay with OVCAR-8; 41.3 µM (inactive) in the assay on PC-3; 5.66 µM (inactive) in the assay on RPMI-8226; 25.2 µM (inactive) with SF-295; 31.8 µM (inactive) with SF-539; 27.1 µM (inactive) in the assay on SK-MEL-2. Besides, the GI50 with TK-10 is 20.5 µM (inactive).

Consider `O=[N+]([O-])C(=C(N1CCCCC1)N1CCCCC1)/C(Cl)=C(\Cl)Br`, for which the GI50 is 13.3 µM (inactive) in the assay with CAKI-1; 11.1 µM (inactive) with CCRF-CEM; 17.5 µM (inactive) with HCC 2998; 19.4 µM (inactive) in the assay on HOP-92; 29.7 µM (inactive) with HT-29; 0.871 µM (active) with Hs-578T. Also, the GI50 with IGROV-1 is 25.8 µM (inactive); in the assay on MCF7 it was 21.9 µM (inactive); with MDA-MB-435, 20.5 µM (inactive); with Malme-3M it was 28.2 µM (inactive); in the assay on OVCAR-4, 24 µM (inactive); in the assay with OVCAR-8 it was 16.4 µM (inactive). Also, the GI50 was 22.9 µM (inactive) in the assay on PC-3; 17.1 µM (inactive) in the assay with RPMI-8226; 54.5 µM (inactive) with SF-295; 24.4 µM (inactive) in the assay on SF-539; 25.5 µM (inactive) in the assay with TK-10; 10.7 µM (inactive) with UACC-62.
